Assay results published in patent publication US8609849B1, “Hydroxylated sulfamides exhibiting neuroprotective action and their method of use” (Fox Chase Chemical Diversity Center, Inc., priority 2010, dated 2013).

These compounds were tested on mice (assay: Maximal Electroshock Test (anti-seizure test)). Conditions: at 100 mg/kg.
Format: in vivo
From the text: Seizure-related assays, Maximal electroshock test: The most definitive assay for antiseizure activity is the maximal electroshock (MES) test (Swinyard, E. A. Laboratory evaluation of antiepileptic drugs: review of laboratory methods, Epilepsia, 1969, 10, 107-119.). […] With both rodent assays, the duration of action is of high importance as well as the potency of the response.

In order of falling “MES Duration” value:
1. NS(=O)(=O)N1CCC(O)(c2ccccc2F)CC1 [Example 19, 4-(2-Fluorophenyl)-4-hydroxypiperidine-1-sulfonamide]  6 hrs at 100 mg/kg
2. NS(=O)(=O)NCC[C@H](O)c1ccccc1F [Example 15, (S)-3-(2-Fluoro-phenyl)-3-hydroxypropyl-1-sulfamide]  4 hrs at 100 mg/kg

In the case of NS(=O)(=O)NCCC(O)c1ccccc1F (stereo not shown) [Example 6, 3-(2-Fluoro-phenyl)-3-hydroxypropyl-1-sulfamide], the “MES Duration” value is reported as 4 hr at 100 mg/kg.

Same assay, conditions: no dose given

NS(=O)(=O)NCCC(O)c1ccccc1Cl (stereo not shown) [Example 1, 3-(2-Chloro-phenyl)-3-hydroxypropyl-1-sulfamide] was tested, and the “MES Duration” value was 2 h.

The compounds below were run on Hippocampal Cultures (assay: Neuroprotection from hydrogen peroxide (oxidative stress), propidium iodide assay). Conditions: Rattus norvegicus, read-out: NP from HP PI EC50.
Format: cell-based
From the text: (§1) Cell cultures: All compounds are screened with dissociated hippocampal cultures derived from embryonic day 18 rats as the primary test system. With this preparation, primary neurons are used to test for toxicity as well as neuroprotection in a highly relevant experimental system to epilepsy. In brief, hippocampal tissue are obtained commercially through Brain Bits (Springfield, Ill.) and cultures prepared as previously described by Brewer (Brewer, G. J. Serum-free B27/neurobasal medium supports differentiated growth of neurons from the striatum, substantia nigra, septum, cerebral cortex, cerebellum and dentate gyms, J. Neurosci. Res. 1995, 42, 674-683.). The hippocampal neurons are platted at low density (10,000 cell/well) in a 96-well format and maintained in serum-free medium consisting of Neurobasal Medium supplemented with B27 and GlutaMAX (Gibco). Pre-coated poly-L-lysine coated plates are used because of the preferential adherence and survival of hippocampal neurons on this matrix support.
(§2) Potent neuroprotection is the distinguishing characteristic that separates this program's anticonvulsants from all other commercial drugs for epilepsy. The experimental details and the rationale for the implemented assays are essential in differentiating these compounds from that of others. The central objective of all neuroprotective assays was their relevancy to excitotoxicity and oxidative stress related to epilepsy. Both the amount of glutamate and hydrogen peroxide used in the assays, as well as the time of treatment and duration of the experiment, were designed to be relevant to epilepsy. Further, all time parameters employed in these studies were empirically determined to be within the limits of reversible toxic events, yet using amounts of glutamate and hydrogen peroxide that were relevant to the disease. In regard to glutamate toxicity, a critical feature was the duration of treatment of the hippocampal neurons. The rational for using a short 5 min treatment with glutamate was based on the observation of Randall and Thayer (Randall, R. D.; Thayer, S. A. Glutamate-induced calcium transient triggers calcium overload and neurotoxicity in rat hippocampal neurons, J. Neurosci. 1992, 12, 1882-1895). […] The rationale is that this intense burst of glutamate and resulting calcium overload is relevant to seizures and therefore was important data to capture in the screening assay. The amount of glutamate (30 μM) employed in our screening was based on the basal levels of glutamate observed in microdialysis measurements of hippocampus from epileptogenic patients (Cavus et al. Decreased hippocampal volume on MRI is associated with increased extracellular glutamate in epilepsy patients, Epilepsia, 2008, 49, 1358-1366.). In regard to hydrogen peroxide, the amount employed (10 μM) was detected in the hippocampus of rats after kainate-induced status epilepticus (Jarrett et. al., Mitochondrial DNA damage and impaired base excision repair during epileptogenesis, Neurobiol. Dis. 2008, 30, 130-138). To produce neural damage and death with these amounts of glutamate and hydrogen peroxide, the cultures were changed to a medium with significant depletion of antioxidant components in the defined medium supplement B-27 just prior to treatment with the compounds. This was performed to obtain a significant and reproducible toxic signal in the hippocampal neurons and because loss of antioxidant control may be a component of epileptogenesis (Waldbaum and Patel, Mitochondria, oxidative stress and temporal lobe epilepsy, Epilepsy Res. 2010 88, 23-45.; Wu et al., Mitochondrial DNA mutation-elicited oxidative stress, oxidative damage, and altered gene expression in cultured cells of patients with MERRF syndrome, Mol. Neurobiol. 2010, 41, 256-266.). Neuroprotection studies with hydrogen peroxide were conducted with cultures that were between day 12 and day 18. Studies of neuroprotection glutamate were conducted between day 19 and day 22. […]

First: NS(=O)(=O)NCC[C@H](O)c1ccccc1F [Example 15, (S)-3-(2-Fluoro-phenyl)-3-hydroxypropyl-1-sulfamide]
Second: NS(=O)(=O)NCC[C@@H](O)c1ccccc1F [Example 16, (R)-3-(2-Fluoro-phenyl)-3-hydroxypropyl-1-sulfamide]
The EC50 of the first is lower: 1 nM for the first, > 300000 nM for the second.

Compared with NS(=O)(=O)NCCC(O)c1c(F)cccc1F (stereo not shown) [Example 22, 3-(2,6-Difluoro-phenyl)-3-hydroxypropyl-1-sulfamide], NS(=O)(=O)NCCC(O)c1cc(F)ccc1F (stereo not shown) [Example 7, 3-(2,5-Difluoro-phenyl)-3-hydroxypropyl-1-sulfamide] is 10-fold lower in EC50: 10 nM for the first, 1 nM for the second. The second is the more potent here.

Compared with CC(C)(CNS(N)(=O)=O)C(O)c1ccccc1F (stereo not shown) [Example 5, 3-(2-Fluoro-phenyl)-3-hydroxy-2,2-dimethylpropyl-1-sulfamide], COc1ccccc1C(O)CCNS(N)(=O)=O (stereo not shown) [Example 14, 3-(2-methoxy-phenyl)-3-hydroxypropyl-1-sulfamide] is lower in EC50: > 300000 nM for the first, 10 nM for the second. The second is the more potent here.

Going from CC(O)(CCNS(N)(=O)=O)c1ccccc1Cl (stereo not shown) [Example 3, 3-(2-Chloro-phenyl)-3-hydroxybutanyl-1-sulfamide] to NS(=O)(=O)NCCC(O)c1csc2ccccc12 (stereo not shown) [Example 2, 3-Benzo[b]thiophen-3-yl-3-hydroxypropyl-1-sulfamide], the EC50 falls from > 300000 nM to 30000 nM. The second is the more potent here.

Same assay, conditions: Rattus norvegicus; 10 μM hydrogen peroxide, hippocampal cultures, propidium iodide (cell death); read-out: NP from HP PI EC50

In order of rising EC50:
1. NS(=O)(=O)NCCC(O)c1ccccc1F (stereo not shown) [Example 6, 3-(2-Fluoro-phenyl)-3-hydroxypropyl-1-sulfamide]  10 nM
2. NS(=O)(=O)N1CCC(O)(c2ccccc2F)CC1 [Example 19, 4-(2-Fluorophenyl)-4-hydroxypiperidine-1-sulfonamide]  1000 nM
3. NS(=O)(=O)NCCC(O)c1ccccc1Cl (stereo not shown) [Example 1, 3-(2-Chloro-phenyl)-3-hydroxypropyl-1-sulfamide]  1000 nM

The compounds below were run on Hippocampal Cultures (assay: Neuroprotection from glutamate (excitotoxicity), CFDA assay). Conditions: Rattus norvegicus, read-out: NP from Glutamate CFDA EC50.
Format: cell-based
From the text: as §1, §2

NS(=O)(=O)NCC[C@H](O)c1ccccc1F [Example 15, (S)-3-(2-Fluoro-phenyl)-3-hydroxypropyl-1-sulfamide] and COc1ccccc1C(O)CCNS(N)(=O)=O (stereo not shown) [Example 14, 3-(2-methoxy-phenyl)-3-hydroxypropyl-1-sulfamide] are the same in EC50: 10 nM for the first, 10 nM for the second.

Going from NS(=O)(=O)NCCC(O)c1c(F)cccc1F (stereo not shown) [Example 22, 3-(2,6-Difluoro-phenyl)-3-hydroxypropyl-1-sulfamide] to NS(=O)(=O)NCCC(O)c1cc(F)ccc1F (stereo not shown) [Example 7, 3-(2,5-Difluoro-phenyl)-3-hydroxypropyl-1-sulfamide], the EC50 falls from 100000 nM to 30000 nM (3.3-fold). The second is the more potent here.

First: CC(C)(CNS(N)(=O)=O)C(O)c1ccccc1F (stereo not shown) [Example 5, 3-(2-Fluoro-phenyl)-3-hydroxy-2,2-dimethylpropyl-1-sulfamide]
Second: CC(O)(CCNS(N)(=O)=O)c1ccccc1Cl (stereo not shown) [Example 3, 3-(2-Chloro-phenyl)-3-hydroxybutanyl-1-sulfamide]
The EC50 of the first is lower: 100 nM for the first, > 300000 nM for the second.

NS(=O)(=O)NCCC(O)c1csc2ccccc12 (stereo not shown) [Example 2, 3-Benzo[b]thiophen-3-yl-3-hydroxypropyl-1-sulfamide] was tested, and the EC50 was 100000 nM.

Same assay, conditions: Rattus norvegicus; 30 μM glutamate, hippocampal cultures, CFDA (neuronal viability); read-out: NP from Glutamate CFDA EC50

In order of falling EC50:
1. NS(=O)(=O)N1CCC(O)(c2ccccc2F)CC1 [Example 19, 4-(2-Fluorophenyl)-4-hydroxypiperidine-1-sulfonamide]  1000 nM
2. NS(=O)(=O)NCCC(O)c1ccccc1F (stereo not shown) [Example 6, 3-(2-Fluoro-phenyl)-3-hydroxypropyl-1-sulfamide]  1000 nM
3. NS(=O)(=O)NCCC(O)c1ccccc1Cl (stereo not shown) [Example 1, 3-(2-Chloro-phenyl)-3-hydroxypropyl-1-sulfamide]  100 nM

What follows are compounds tested on Hippocampal Cultures (assay: Neuroprotection from hydrogen peroxide (oxidative stress), CFDA assay). Conditions: Rattus norvegicus, read-out: NP from HP CFDA EC50.
Format: cell-based
From the text: as §1, §2

Going from NS(=O)(=O)NCC[C@H](O)c1ccccc1F [Example 15, (S)-3-(2-Fluoro-phenyl)-3-hydroxypropyl-1-sulfamide] to NS(=O)(=O)NCC[C@@H](O)c1ccccc1F [Example 16, (R)-3-(2-Fluoro-phenyl)-3-hydroxypropyl-1-sulfamide], the EC50 rises from 1 nM to > 300000 nM. The first is the more potent here.

Going from NS(=O)(=O)NCCC(O)c1c(F)cccc1F (stereo not shown) [Example 22, 3-(2,6-Difluoro-phenyl)-3-hydroxypropyl-1-sulfamide] to NS(=O)(=O)NCCC(O)c1cc(F)ccc1F (stereo not shown) [Example 7, 3-(2,5-Difluoro-phenyl)-3-hydroxypropyl-1-sulfamide], the EC50 falls from 1000 nM to 10 nM (100-fold). The second is the more potent here.

Going from CC(C)(CNS(N)(=O)=O)C(O)c1ccccc1F (stereo not shown) [Example 5, 3-(2-Fluoro-phenyl)-3-hydroxy-2,2-dimethylpropyl-1-sulfamide] to COc1ccccc1C(O)CCNS(N)(=O)=O (stereo not shown) [Example 14, 3-(2-methoxy-phenyl)-3-hydroxypropyl-1-sulfamide], the EC50 falls from > 300000 nM to 10000 nM. The second is the more potent here.

Going from CC(O)(CCNS(N)(=O)=O)c1ccccc1Cl (stereo not shown) [Example 3, 3-(2-Chloro-phenyl)-3-hydroxybutanyl-1-sulfamide] to NS(=O)(=O)NCCC(O)c1csc2ccccc12 (stereo not shown) [Example 2, 3-Benzo[b]thiophen-3-yl-3-hydroxypropyl-1-sulfamide], the EC50 falls from 300000 nM to 3000 nM (100-fold).

Same assay, conditions: Rattus norvegicus; 10 μM hydrogen peroxide, hippocampal cultures, CFDA (neuronal viability); read-out: NP from HP CFDA EC50

In order of falling EC50:
1. NS(=O)(=O)NCCC(O)c1ccccc1Cl (stereo not shown) [Example 1, 3-(2-Chloro-phenyl)-3-hydroxypropyl-1-sulfamide]  30000 nM
2. NS(=O)(=O)N1CCC(O)(c2ccccc2F)CC1 [Example 19, 4-(2-Fluorophenyl)-4-hydroxypiperidine-1-sulfonamide]  1000 nM
3. NS(=O)(=O)NCCC(O)c1ccccc1F (stereo not shown) [Example 6, 3-(2-Fluoro-phenyl)-3-hydroxypropyl-1-sulfamide]  10 nM

Each compound was assayed on Hippocampal Cultures (assay: Neuroprotection from glutamate (excitotoxicity), propidium iodide assay). Conditions: Rattus norvegicus, read-out: NP from Glutamate PI EC50.
Format: cell-based
From the text: as §1, §2

Going from NS(=O)(=O)NCC[C@H](O)c1ccccc1F [Example 15, (S)-3-(2-Fluoro-phenyl)-3-hydroxypropyl-1-sulfamide] to COc1ccccc1C(O)CCNS(N)(=O)=O (stereo not shown) [Example 14, 3-(2-methoxy-phenyl)-3-hydroxypropyl-1-sulfamide], the EC50 rises from 10 nM to 100 nM (10-fold).

First: NS(=O)(=O)NCCC(O)c1c(F)cccc1F (stereo not shown) [Example 22, 3-(2,6-Difluoro-phenyl)-3-hydroxypropyl-1-sulfamide]
Second: NS(=O)(=O)NCCC(O)c1cc(F)ccc1F (stereo not shown) [Example 7, 3-(2,5-Difluoro-phenyl)-3-hydroxypropyl-1-sulfamide]
The EC50 of the first is 100-fold higher: 300000 nM for the first, 3000 nM for the second. The second is the more potent here.

Compared with CC(C)(CNS(N)(=O)=O)C(O)c1ccccc1F (stereo not shown) [Example 5, 3-(2-Fluoro-phenyl)-3-hydroxy-2,2-dimethylpropyl-1-sulfamide], CC(O)(CCNS(N)(=O)=O)c1ccccc1Cl (stereo not shown) [Example 3, 3-(2-Chloro-phenyl)-3-hydroxybutanyl-1-sulfamide] is higher in EC50: 100 nM for the first, > 300000 nM for the second. The first is the more potent here.

Work on NS(=O)(=O)NCCC(O)c1csc2ccccc12 (stereo not shown) [Example 2, 3-Benzo[b]thiophen-3-yl-3-hydroxypropyl-1-sulfamide] yielded an EC50 of 3000 nM.

Same assay, conditions: Rattus norvegicus; 30 μM glutamate, hippocampal cultures, propidium iodide (cell death); read-out: NP from Glutamate PI EC50

In order of falling EC50:
1. NS(=O)(=O)NCCC(O)c1ccccc1Cl (stereo not shown) [Example 1, 3-(2-Chloro-phenyl)-3-hydroxypropyl-1-sulfamide]  100 nM
2. NS(=O)(=O)NCCC(O)c1ccccc1F (stereo not shown) [Example 6, 3-(2-Fluoro-phenyl)-3-hydroxypropyl-1-sulfamide]  100 nM
3. NS(=O)(=O)N1CCC(O)(c2ccccc2F)CC1 [Example 19, 4-(2-Fluorophenyl)-4-hydroxypiperidine-1-sulfonamide]  1 nM
